Twelve compounds from patent publication US11813306B2, “Cyclic tetramer compounds as proprotein convertase subtilisin/kexin type 9 (PCSK9) inhibitors for the treatment of metabolic disorders” (NOVARTIS AG, priority 2018, dated 2023) can be followed below.

The target of the experiment is human PCSK9 (Homo sapiens, UniProt Q8NBP7). As to the kind of experiment: PCSK9 ligand binding assay (TR-FRET): interference with binding of human PCSK9 to human LDLR. The conditions noted are these: for IC50: Human PCSK9 Alexa Fluor 647 / Human LDLR extracellular domain-Europium Kryptate; for Max % inhibition: efficacy (Amax), 100% = 1 uM unlabeled human PCSK9, 0% = DMSO. Here is the method: Example 10: PCSK9 Ligand Binding Assay
The PCSK9 binding of the compounds of the disclosure were measured using a time resolved fluorescence resonance energy transfer (TR-FRET) assay. This time resolved fluorescence resonance energy transfer (TR-FRET) assay measures the ability of a compound of the present disclosure to interfere with the binding of human PCSK9 to human LDLR, providing measures of both potency (IC50) and efficacy (Amax).
Human PCSK9 Alexa Fluor 647
Human LDLR extracellular domain-Europium Kryptate
Proxi plate-low volume assay plate (PerkinElmer #6008280)
Greiner V-bottom (Greiner BioOne #781280)
Assay Buffer • 20 mM HEPES, pH 7.5 • 150 mM NaCl • 1 mM CaCl2 • 0.01% v/v Tween20 • 0.01% w/v BSA
A master compound plate was prepared in a Greiner V bottom plate by diluting compounds of the disclosure in dimethylsulfoxide to the correct concentration for the desired top concentration based on the desired final concentration: for a 30 uM final concentration the master plate concentration is 1.5 mM (68 uL DMSO+12 uL 10 mM of a compound of the disclosure), for a 10 uM final concentration the master plate concentration is 0.5 mM (76 uL DMSO+4 uL 10 mM of a compound of the disclosure), for a 3 uM final concentration the master plate concentration is 150 uM (69 uL DMSO+1 uL 10 mM of a compound of the disclosure). These solutions were pipetted into columns 1 and 11 of the compound plate. Threefold serial dilutions were generated in columns 2-10 and 12-20 of the compound plate by transferring 10 uL into 20 uL of DMSO. Columns 21 and 22 of the compound plate were negative controls containing DMSO alone.
An intermediate plate was generated in a Greiner V bottom plate by transferring 8 uL from each well of the master plate into a corresponding well containing 92 uL of assay buffer and mixing thoroughly.
A Proxi plate-low volume assay plate was used for the assay. To all wells of the plate was added 10 uL of 16 nM Human PCSK9 Alexa Fluor 647, followed by 5 uL from the intermediate plate. For the positive control wells in columns 23 and 24 of the plate, 5 uL of unlabeled human PCSK9 was added at 4 uM in assay buffer containing 8% DMSO. Following a 30 minute incubation, 5 uL of 4 nM Human LDLR extracellular domain-Europium Kryptate was added and the mixture was incubated for an additional 2 hours.
The TR-FRET signal was measured on an EnVision or PheraStar instrument with a 60 ms delay, 330 nm excitation and 665 nm emission (FRET), and 330 nm excitation and 615 nm (Europium). The FRET ratio (FRET/Europium) was used for calculations.
No inhibition (0%) was observed from the wells containing DMSO (Control) in columns 21 and 22 of the compound plate. Full inhibition (100%) was observed from the wells containing 1 uM human PCSK9 (Control) in columns 23 and 24 of the plate. Data is expressed as percent inhibition: (value—0%)/(100%-0%).

Sequence of human PCSK9 (Q8NBP7 153-692): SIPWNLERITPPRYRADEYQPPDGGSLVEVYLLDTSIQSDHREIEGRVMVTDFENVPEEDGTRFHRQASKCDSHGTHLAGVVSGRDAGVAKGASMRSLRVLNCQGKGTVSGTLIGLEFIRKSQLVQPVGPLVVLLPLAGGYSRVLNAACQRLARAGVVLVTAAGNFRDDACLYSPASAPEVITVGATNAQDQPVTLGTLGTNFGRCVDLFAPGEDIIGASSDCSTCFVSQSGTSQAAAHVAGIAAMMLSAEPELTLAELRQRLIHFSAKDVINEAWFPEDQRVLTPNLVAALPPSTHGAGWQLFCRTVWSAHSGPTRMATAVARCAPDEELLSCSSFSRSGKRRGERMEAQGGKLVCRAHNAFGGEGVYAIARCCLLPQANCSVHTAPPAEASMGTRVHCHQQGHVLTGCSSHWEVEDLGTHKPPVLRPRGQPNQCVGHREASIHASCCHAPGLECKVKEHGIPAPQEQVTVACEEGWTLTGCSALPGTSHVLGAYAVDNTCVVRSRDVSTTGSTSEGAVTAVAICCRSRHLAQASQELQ
Sequence of human PCSK9 (Q8NBP7 31-152 partner limits assumed): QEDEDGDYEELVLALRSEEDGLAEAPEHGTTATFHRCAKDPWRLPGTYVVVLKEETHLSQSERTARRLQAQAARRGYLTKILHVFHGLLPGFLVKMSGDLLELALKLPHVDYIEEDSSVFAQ

`COC[C@@H]1NC(=O)[C@H](C)N(Cc2ccc(Cl)cc2Oc2ccc(-c3cnc(CN(C)C)n3C)nc2)C(=O)C[C@@H](Cc2ccccc2)C(=O)N2CCC[C@@](Cc3ccc(Cl)cc3)(C2)N(C)C1=O` [Compound 27, (3R,7S,10S,13R)-3-Benzyl-6-(4-chloro-2-((6-(2-((dimethylamino)methyl)-1-methyl-1H-imidazol-5-yl)pyridin-3-yl)oxy)benzyl)-13-(4-chlorobenzyl)-10-(methoxymethyl)-7,12-dimethyl-1,6,9,12-tetraazabicyclo[11.3.1]heptadecane-2,5,8,11-tetraone]: the concentration for half-maximal inhibition (IC50) is 0.627 nM and the Max % inhibition was determined as 111.0%.

In the case of `C[C@H]1C(=O)N[C@@H](CO)C(=O)N[C@@]2(Cc3ccc(Cl)cc3)CCCN(C2)C(=O)[C@H](CC(F)(F)F)CC(=O)N1Cc1c(F)cc(Cl)cc1Oc1ccc(-c2cnc(CN3CCC3)n2C)cc1` [Compound 28, (3S, 7S, 10S, 13R)-6-(2-(4-(2-(azetidin-1-ylmethyl)-1-methyl-1H-imidazol-5-yl)phenoxy)-4-chloro-6-fluorobenzyl)-13-(4-chlorobenzyl)-10-(hydroxymethyl)-7-methyl-3-(2,2,2-trifluoroethyl)-1,6,9,12-tetraazabicyclo[11.3.1]heptadecane-2,5,8,11-tetraone], the IC50 amounted to 0.612 nM and the Max % inhibition came out at 114.2%.

As for `COC[C@@H]1NC(=O)[C@H](C)N(Cc2ncc(Cl)cc2Oc2ccc(-c3cnc(CN(C)C)n3C)cc2)C(=O)C[C@@H](CC(F)(F)F)C(=O)N2CCC[C@@](Cc3ccc(Cl)cc3)(C2)NC1=O` [Compound 29, (3S, 7S, 10S, 13R)-6-((5-chloro-3-(4-(2-((dimethylamino)methyl)-1-methyl-1H-imidazol-5-yl)phenoxy)pyridin-2-yl)methyl)-13-(4-chlorobenzyl)-10-(methoxymethyl)-7-methyl-3-(2,2,2-trifluoroethyl)-1,6,9,12-tetraazabicyclo[11.3.1]heptadecane-2,5,8,11-tetraone], the IC50 came out at 0.97 nM and the Max % inhibition is 119.8%.

Regarding `C[C@H]1C(=O)N[C@@H](COC(F)F)C(=O)N[C@@]2(Cc3ccc(Cl)cc3)CCCN(C2)C(=O)[C@H](Cc2ccccn2)CC(=O)N1Cc1ccc(Cl)cc1Oc1ccc(-c2cnc(CN3CCCC3)n2C)cc1` [Compound 30, (3R,7S,10S,13R)-6-(4-Chloro-2-(4-(1-methyl-2-(pyrrolidin-1-ylmethyl)-1H-imidazol-5-yl)phenoxy)benzyl)-13-(4-chlorobenzyl)-10-((difluoromethoxy)methyl)-7-methyl-3-(pyridin-2-ylmethyl)-1,6,9,12-tetraazabicyclo[11.3.1]heptadecane-2,5,8,11-tetraone], the IC50 came to 0.819 nM and the Max % inhibition is recorded as 106.2%.

`C[C@H]1C(=O)N[C@@H](CO)C(=O)N[C@@]2(Cc3ccc(Cl)cc3)CCCN(C2)C(=O)[C@H]([C@H]2CCc3ccccc32)CC(=O)N1Cc1ccc(Cl)cc1Oc1ccc(-c2cnc(CN(C)C)n2C)cn1` [Compound 31, (3S, 7S, 10S, 13R)-6-(4-chloro-2-((5-(2-((dimethylamino)methyl)-1-methyl-1H-imidazol-5-yl)pyridin-2-yl)oxy)benzyl)-13-(4-chlorobenzyl)-3-((R)-2,3-dihydro-1H-inden-1-yl)-10-(hydroxymethyl)-7-methyl-1,6,9,12-tetraazabicyclo[11.3.1]heptadecane-2,5,8,11-tetraone]: the concentration for half-maximal inhibition (IC50) stood at 1.1 nM and the Max % inhibition is 98.3%.

With `C[C@H]1C(=O)N[C@@H](CO)C(=O)N(C)[C@@]2(Cc3ccc(Cl)cc3)CCCN(C2)C(=O)[C@H](Cc2ccccn2)CC(=O)N1Cc1c(F)cc(Cl)cc1Oc1ccc(-c2cnc(CN(C)C)n2C)cc1` [Compound 32, (3R,7S,10S,13R)-6-(4-Chloro-2-(4-(2-((dimethylamino)methyl)-1-methyl-1H-imidazol-5-yl)phenoxy)-6-fluorobenzyl)-13-(4-chlorobenzyl)-10-(hydroxymethyl)-7,12-dimethyl-3-(pyridin-2-ylmethyl)-1,6,9,12-tetraazabicyclo[11.3.1]heptadecane-2,5,8,11-tetraone], the concentration for half-maximal inhibition (IC50) was determined as 0.447 nM and the Max % inhibition is listed as 105.8%.

Take `COC[C@@H]1NC(=O)[C@H](C)N(Cc2ccc(Cl)cc2Oc2ccc(-c3cnc(CN4CCC4)n3C)cc2)C(=O)C[C@@H](CC(F)(F)F)C(=O)N2CCC[C@@](Cc3ccc(Cl)cc3)(C2)NC1=O` [Compound 33, (3S,7S,10S,13R)-6-(2-(4-(2-(Azetidin-1-ylmethyl)-1-methyl-1H-imidazol-5-yl)phenoxy)-4-chlorobenzyl)-13-(4-chlorobenzyl)-10-(methoxymethyl)-7-methyl-3-(2,2,2-trifluoroethyl)-1,6,9,12-tetraazabicyclo[11.3.1]heptadecane-2,5,8,11-tetraone]: the IC50 came out at 1.05 nM and the Max % inhibition is 113.0%.

For `C[C@H]1C(=O)N[C@@H](CO)C(=O)N[C@@]2(Cc3ccc(Cl)cc3)CCCN(C2)C(=O)[C@H](Cc2c(F)cccc2F)CC(=O)N1Cc1c(F)cc(Cl)cc1Oc1ccc(-c2cnc(CN(C)C)n2C)cc1` [Compound 34, (3R, 7S, 10S, 13R)-6-(4-chloro-2-(4-(2-((dimethylamino)methyl)-1-methyl-1H-imidazol-5-yl)phenoxy)-6-fluorobenzyl)-13-(4-chlorobenzyl)-3-(2,6-difluorobenzyl)-10-(hydroxymethyl)-7-methyl-1,6,9,12-tetraazabicyclo[11.3.1]heptadecane-2,5,8,11-tetraone], the concentration for half-maximal inhibition (IC50) is 0.509 nM and the Max % inhibition came out at 101.6%.

`COC[C@@H]1NC(=O)[C@H](C)N(Cc2ccc(Cl)cc2Oc2ccc(-c3cnc(CN(C)C)n3C)cc2)C(=O)C[C@@H](Cc2ncco2)C(=O)N2CCC[C@@](Cc3ccc(Cl)cc3)(C2)NC1=O` [Compound 35, (3R, 7S, 10S, 13R)-6-(4-chloro-2-(4-(2-((dimethylamino)methyl)-1-methyl-1H-imidazol-5-yl)phenoxy)benzyl)-13-(4-chlorobenzyl)-10-(methoxymethyl)-7-methyl-3-(oxazol-2-ylmethyl)-1,6,9,12-tetraazabicyclo[11.3.1]heptadecane-2,5,8,11-tetraone]: the 50% inhibitory concentration (IC50) came out at 0.914 nM and the Max % inhibition stood at 105.0%.

Take `C[C@H]1C(=O)N[C@@H](CO)C(=O)N[C@@]2(Cc3ccc(Cl)cc3)CCCN(C2)C(=O)CCC(=O)N1Cc1c(OCC(F)(F)F)cc(Cl)cc1Oc1ccc(-c2cnc(CN(C)C)n2C)cc1` [Compound 36, (7S, 10S, 13R)-6-(4-chloro-2-(4-(2-((dimethylamino)methyl)-1-methyl-1H-imidazol-5-yl)phenoxy)-6-(2,2,2-trifluoroethoxy)benzyl)-13-(4-chlorobenzyl)-10-(hydroxymethyl)-7-methyl-1,6,9,12-tetraazabicyclo[11.3.1]heptadecane-2,5,8,11-tetraone]: the half-maximal inhibitory concentration (IC50) came to 0.584 nM and the Max % inhibition is 104.5%.

Take `C[C@H]1C(=O)N[C@@H](CO)C(=O)N(C)[C@@]2(Cc3ccc(Cl)cc3)CCCN(C2)C(=O)[C@H](Cc2c(F)cc(F)cc2F)CC(=O)N1Cc1ccc(Cl)cc1Oc1ccc(-c2cnc(CN(C)C)n2C)cc1` [Compound 37, (3R, 7S, 10S, 13R)-6-(4-chloro-2-(4-(2-((dimethylamino)methyl)-1-methyl-1H-imidazol-5-yl)phenoxy)benzyl)-13-(4-chlorobenzyl)-10-(hydroxymethyl)-7,12-dimethyl-3-(2,4,6-trifluorobenzyl)-1,6,9,12-tetraazabicyclo[11.3.1]heptadecane-2,5,8,11-tetraone]: the IC50 is 0.445 nM and the Max % inhibition amounted to 112.0%.

Consider `COC[C@@H]1NC(=O)[C@H](C)N(Cc2ccc(Cl)cc2Oc2ccc(-c3cnc(CN(C)C)n3C)cc2)C(=O)C[C@@H](Cc2cccc(C)n2)C(=O)N2CCC[C@@](Cc3ccc(Cl)cc3)(C2)N(C)C1=O` [Compound 38, (3R, 7S, 10S, 13R)-6-(4-chloro-2-(4-(2-((dimethylamino)methyl)-1-methyl-1H-imidazol-5-yl)phenoxy)benzyl)-13-(4-chlorobenzyl)-10-(methoxymethyl)-7,12-dimethyl-3-((6-methylpyridin-2-yl)methyl)-1,6,9,12-tetraazabicyclo[11.3.1]heptadecane-2,5,8,11-tetraone], for which the half-maximal inhibitory concentration (IC50) turned out to be 0.715 nM and the Max % inhibition is 106.4%.
